Where two headings read alike, the source gives them in different places.
Legend:
[1] = target: Plasmodium vivax (Pv) NMT (Plasmodium vivax (strain Salvador I), UniProt A5K1A2); assay: biochemical
[2] = system: BL-41 cells; assay: Metabolic activity assay (MTS assay) in BL-41 cell line; format: cell-based; settings: Homo sapiens, 72 h
[3] = Rat clearance and bioavailability (iv and oral dosing); format: in vivo; settings: male, Sprague-Dawley, plasma; for half-life: read-out: Rat iv t1/2 (converted)
[4] = in vitro; settings: male, Sprague-Dawley, rat, pooled cryopreserved rat hepatocytes, pH 7.4
[5] = system: Plasmodium falciparum 3D7; assay: SYBR Green assay, Plasmodium falciparum strain 3D7; format: cell-based; settings: P. falciparum strain 3D7, 96 h incubation, read-out: Pf EC50 strain 3D7
[6] = system: DOHH-2 tumor cells; assay: Mouse xenograft, subcutaneous DOHH-2 Lymphoma Model; format: in vivo; settings: intraperitoneally 25 mg/kg twice a day for three days then four day no-dosing, cycle repeated three times, compared to vehicle
Procedure: Assay (i): Mouse Xenograft Protocol
The in vivo efficacy was assess in a subcutaneous xenograft DOHH-2 Lymphoma Model using Female 6-8 week old CB17/SCID Mice. […] The test compound administration started once the mean tumor size reached approximately 100-150 mm3. Compounds were administered either IP (vehicle 58% Na2HPO4 buffer (10 mM) (pH4.5)+40% PEG400+2% DMSO) or orally (vehicle Na2HPO4 buffer (10 mM) (pH 4.5)+0.2% tween 80). Tumor volumes were measured in two dimensions using a caliper, and the volume expressed in mm3 using the formula: V=(L×W×W)/2, where V is tumor volume, L is tumor length (the longest tumor dimension) and W is tumor width (the longest tumor dimension perpendicular to L).
Mice were dosed with Example 2 orally (50 mg/kg) once a day for 9 consecutive days (FIG. 5a), or Example 2 was dosed intraperitonally (25 mg/kg) in a cycle consisting of administration twice a day for three days followed by a four day no-dosing period (FIG. 5b). The cycle was repeated three times.
Mice were dosed with Example 129 intraperitonally (25 mg/kg) in a cycle consisting of administration twice a day for three days followed by a four day no-dosing period (Figure Sc). The cycle was repeated three times.
The protocol and any amendment(s) or procedures involving the care and use of animals in this study were reviewed and approved by the Institutional Animal Care and Use Committee (IACUC) of CrownBio prior to execution. During the study, the care and use of animals was conducted in accordance with the regulations of the Association for Assessment and Accreditation of Laboratory Animal Care (AAALAC).

[7] = target: Human NMT1 (HsNMT1) (Homo sapiens, UniProt P30419); assay: biochemical
[8] = system: SU-DHL-10 cells; assay: Cell cytotoxicity in SU-DHL-10 cell line (CellTiter-Glo); format: cell-based; settings: Homo sapiens, SU-DHL10; CellTiter-Glo, 48 h; read-out: SU-DHL-10 EC50
[9] = system: P-493-6 cell line; assay: CellTiter-Blue assay, P-493-6 with low, medium or high c-Myc; format: cell-based, human; settings: 72 hours, different expression levels of c-Myc induced
Excerpt: (§1) Assay (d): CellTiter-Blue® Assay
(§2) Shep-ER-N-Myc cell line (cell type: human neuroblastoma) was sourced from Linda Valentijn, and firstly reported in Valentijn et. al., Cancer Res, 2005, 65(8), 3136-3145. SKNAS-ER-N-Myc cell line (cell type: human neuroblastoma) was sourced from Michael D. Hogarty, and firstly reported in Ushmorov et al., Oncogene, 2008, 27(24), 3424-3434. P-493-6 cell line was sourced from Chi Van Dang, and firstly reported in Pajic et. al., Int J Cancer, 2000, 87(6), 787-793. P-493-6 cell line is a non-transformed B cell line that can be genetically engineered to have either “low” levels of c-Myc, “medium” levels of c-Myc or “high” levels of c-Myc. The terms “low”, “medium” and “high” are descriptors commonly used in the art and will be readily understood to mean: • i) “low” levels of c-Myc—a level of MYC expression which represents non-proliferating normal cells (i.e. a level of MYC expression not sufficient to cause the cycling of the cells); • ii) “medium” levels of c-Myc—a level of MYC expression which represents normal proliferating cells; and • iii) “high” levels of c-Myc—a level of MYC expression which represents enforced/deregulated expression of c-Myc, typically observed in cancerous cells. […]

[10] = system: Plasmodium falciparum strain NF54; assay: SYBR Green assay, Plasmodium falciparum strain NF54; settings: NF54, read-out: Pf EC50 strain NF54
[11] = system: Shep-ER-N-Myc cell line; assay: CellTiter-Blue assay, Shep-ER-N-Myc with or without MYCN induction; format: cell-based, human; settings: 72 hours
Excerpt: as §1, §2
For Shep cells, the experiment was performed in a 96 well plate and in technical quadruplicate. […] The fluorescence was measured at 570 nm using an EnVision™ plate reader. […]

[12] = system: SKNAS-ER-N-Myc cell line; assay: CellTiter-Blue assay, SKNAS-ER-N-Myc with or without MYCN induction; format: cell-based, human
Excerpt: as §1, §2
For SKNAS cells, the experiment was performed in a 48 well plate and in technical triplicate. […] The fluorescence was measured at 570 nm using an EnVision™ plate reader. […]

[13] = iv 1 mg/kg, cassette dosing of 4 compounds
[14] = oral 5 mg/kg, cassette dosing of 4 compounds
[15] = iv 3 mg/kg, administered as a single compound
[16] = oral 30 mg/kg, administered as a single compound

Chain of Plasmodium vivax (Pv) NMT (A5K1A2 1-410): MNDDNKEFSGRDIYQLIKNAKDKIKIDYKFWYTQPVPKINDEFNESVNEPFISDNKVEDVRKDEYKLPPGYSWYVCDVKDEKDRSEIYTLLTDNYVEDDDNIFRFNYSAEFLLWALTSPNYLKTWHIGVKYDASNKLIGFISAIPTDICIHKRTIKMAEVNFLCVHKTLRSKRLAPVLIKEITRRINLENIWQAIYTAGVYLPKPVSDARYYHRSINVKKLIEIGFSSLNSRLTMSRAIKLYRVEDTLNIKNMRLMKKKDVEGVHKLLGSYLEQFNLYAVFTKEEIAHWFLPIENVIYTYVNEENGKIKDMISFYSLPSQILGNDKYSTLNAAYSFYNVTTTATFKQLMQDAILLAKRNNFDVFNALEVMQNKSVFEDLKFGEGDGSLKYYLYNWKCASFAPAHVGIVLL
Chain of Human NMT1 (HsNMT1) (P30419 whole entry, looked up): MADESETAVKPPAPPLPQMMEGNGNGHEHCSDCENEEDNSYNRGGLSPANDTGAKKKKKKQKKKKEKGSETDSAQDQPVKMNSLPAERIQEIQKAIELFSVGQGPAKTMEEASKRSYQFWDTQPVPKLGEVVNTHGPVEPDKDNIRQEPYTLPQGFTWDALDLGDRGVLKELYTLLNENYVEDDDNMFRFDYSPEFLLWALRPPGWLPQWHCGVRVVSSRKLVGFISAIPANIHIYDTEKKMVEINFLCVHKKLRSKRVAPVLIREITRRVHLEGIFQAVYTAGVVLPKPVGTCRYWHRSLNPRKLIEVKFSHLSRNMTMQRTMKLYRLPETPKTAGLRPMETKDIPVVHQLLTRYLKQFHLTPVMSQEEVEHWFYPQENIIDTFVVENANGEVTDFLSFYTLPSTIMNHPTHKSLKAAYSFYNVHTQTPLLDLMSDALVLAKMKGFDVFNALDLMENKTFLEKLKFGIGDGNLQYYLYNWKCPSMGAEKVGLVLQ

| SMILES | IC50 [1] [nM] | EC50 [2] [nM] | half-life at 1 µM [4] [h] | EC50 [5] [nM] | IC50 [7] [nM] | also measured |
| --- | --- | --- | --- | --- | --- | --- |
| CN1CCN(c2ncc(Cl)c(N3CC(C(=O)NC(C)(C)c4cnc5ccccn45)C3)n2)CC1 [Example 55] | 4.4 | 1070 | 2.33 | 64 |  | half-life [3, 13]: 3.1 h; bioavailability [3, 14]: 38% |
| C[C@H]1CNCCN1c1ncc(Cl)c(N2CC(C(=O)NC(C)(C)c3cnc4ccccn34)C2)n1 [Example 129, (S)-1-(5-chloro-2-(2-methylpiperazin-1-yl)pyrimidin-4-yl)-N-(2-(imidazo[1,2-a]pyridin-3-yl)propan-2-yl)azetidine-3-carboxamide] |  |  |  |  | 2 | tumour volume [6]: significant decrease in tumour volume; EC50 [8]: 6 nM |
| C[C@H]1CN(C)CCN1c1ncc(Cl)c(N2CC(C(=O)NC(C)(C)c3cnc4ccccn34)C2)n1 [Example compound 2] |  |  |  |  |  | metabolic viability of the P-493-6 cell line [9]: clear MYC-dependent loss in metabolic viability |
| O=C(NCc1cnc2ccccn12)C1CN(c2nc(N3CCNCC3)ncc2F)C1 [Example 16] | 68 |  | > 6.25 |  |  | EC50 [10]: > 5000 nM; half-life [3, 15]: 5.9 h; bioavailability [3, 16]: 0.5% |
| COc1cnc(N2CCCNCC2)nc1N1CC(C(=O)NC(C)(C)c2cnc3ccccn23)C1 [Example 20] | 16 | 1160 |  | 150 | 16 |  |
| C[C@H]1CN(C)CCN1c1ncc(Cl)c(N2CC(C(=O)NC(C)(C)c3cnc4ccccn34)C2)n1 [Example Compound 2] |  |  |  |  |  | metabolic viability of the Shep-ER-N-MYC cell line [11]: clear loss in metabolic viability when the cells have induction of MYCN; metabolic viability of the SKNAS-ER-N-MYC cell line [12]: clear loss in metabolic viability when the cells have induction of MYCN |
| CC(C)(NC(=O)C1CN(c2nc(N3CCCNCC3)ncc2Cl)C1)c1cnc2ccccn12 [Example 51] | 5.3 | 80 |  | 28 |  | half-life [3, 15]: 9.1 h; bioavailability [3, 16]: 0.07% |
| CC(C)(NC(=O)C1CN(c2nc(N3CCCNCC3)ncc2F)C1)c1cnc2ccccn12 [Example 11] | 14 | 890 |  | 51 |  | half-life [3, 15]: 4.4 h; bioavailability [3, 16]: 0.35% |
| CN1CCCN(c2ncc(Cl)c(N3CC(C(=O)NC(C)(C)c4cnc5ccccn45)C3)n2)CC1 [Example 57] | 2.2 | 1250 | 2.52 | 49 | 3.5 | half-life [3, 13]: 6.6 h; bioavailability [3, 14]: 6%; EC50 [8]: 203 nM |
| CN1CCN(c2ncc(F)c(N3CC(C(=O)NC(C)(C)c4cnc5ccccn45)C3)n2)CC1 [Example 54] | 6.2 | 2310 | > 3 | 160 |  | half-life [3, 13]: 3.5 h; bioavailability [3, 14]: 33% |
| CC(NC(=O)C1CN(c2nc(N3CCCNCC3)ncc2Cl)C1)c1cnc2ccccn12 (centres unmarked) [Example 10] | 6.3 | 240 | 2.03 | 510 | 7.9 |  |
